In PubChem BioAssay AID248 (DTP/NCI, 2004):
Values joined by “and” are separate entries in the source; they are usually repeats but may differ in a detail not shown here. Identical values can stand only once. Toxic doses and inconclusive results are not listed. Rule as the data show it: active = T/C of 150% or more; inactive = T/C below 125%.

System: L1210 leukemia ip in BDF1 mice, survival T/C
Assay: NCI In Vivo Anticancer Drug Screen. Data for tumor model L1210 Leukemia (intraperitoneal) in B6D2F1 (BDF1) mice
Settings: endpoint: mean survival time, higher = longer survival
Outline: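 Transplantable tumor model; survival measured in treated vs vehicle control mice. Value = treated/control.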

[1] = dose: 100.0 mg/kg/injection, schedule: Q01DX001 (sc), vehicle: steriod suspending solution
[2] = dose: 200.0 mg/kg/injection, schedule: Q01DX001 (sc), vehicle: steriod suspending solution
[3] = dose: 400.0 mg/kg/injection, schedule: Q01DX001 (sc), vehicle: steriod suspending solution
[4] = dose: 75.0 mg/kg/injection, schedule: Q01DX001 (ip), vehicle: carboxymethylcellulose (CMC)
[5] = dose: 150.0 mg/kg/injection, schedule: Q01DX001 (ip), vehicle: carboxymethylcellulose (CMC)
[6] = dose: 300.0 mg/kg/injection, schedule: Q01DX001 (ip), vehicle: carboxymethylcellulose (CMC)
[7] = dose: 100.0 mg/kg/injection, schedule: Q04DX003 (ip), vehicle: saline with Tween-80
[8] = dose: 200.0 mg/kg/injection, schedule: Q04DX003 (ip), vehicle: saline with Tween-80
[9] = dose: 400.0 mg/kg/injection, schedule: Q04DX003 (ip), vehicle: saline with Tween-80
[10] = dose: 100.0 mg/kg/injection, schedule: Q01DX009 (ip), vehicle: Klucel (hydroxypropylcellulose) (HPC)
[11] = dose: 100.0 mg/kg/injection, schedule: Q01DX001 (ip), vehicle: carboxymethylcellulose (CMC)
[12] = dose: 200.0 mg/kg/injection, schedule: Q01DX001 (ip), vehicle: carboxymethylcellulose (CMC)
[13] = dose: 400.0 mg/kg/injection, schedule: Q01DX001 (ip), vehicle: carboxymethylcellulose (CMC)

Measured: T/C

CCC(c1ccc2cc(OC)ccc2c1)C(C)(C)C(=O)O (stereo not given)
inactive: [1] 112 % of control | [2] 95 % of control | [3] 101 % of control

CCn1c2ccccc2c2ccc(C(C)=O)cc21
inactive: [4] 95 % of control | [5] 95 % of control | [6] 97 % of control

Clc1c2ccccc2c(Cl)c2ccccc12
inactive: dose: 3.1 mg/kg/injection, schedule: Q04DX002 (ip), vehicle: Klucel (hydroxypropylcellulose) (HPC) 89 % of control | dose: 6.25 mg/kg/injection, schedule: Q04DX002 (ip), vehicle: Klucel (hydroxypropylcellulose) (HPC) 100 % of control | dose: 12.5 mg/kg/injection, schedule: Q04DX002 (ip), vehicle: Klucel (hydroxypropylcellulose) (HPC) 93 % of control | dose: 25.0 mg/kg/injection, schedule: Q04DX002 (ip), vehicle: Klucel (hydroxypropylcellulose) (HPC) 90 % of control

C[P+]1(C)CC=C2CCCCC21 (stereo not given)
inactive: dose: 12.5 mg/kg/injection, schedule: Q04DX002 (ip), vehicle: saline with Tween-80 100 % of control | dose: 25.0 mg/kg/injection, schedule: Q04DX002 (ip), vehicle: saline with Tween-80 98 % of control | dose: 50.0 mg/kg/injection, schedule: Q04DX002 (ip), vehicle: saline with Tween-80 98 % of control

O=Cc1cc2ccccc2cc1O
inactive: dose: 50.0 mg/kg/injection, schedule: Q01DX009 (ip), vehicle: saline with Tween-80 91 % of control | dose: 100.0 mg/kg/injection, schedule: Q01DX009 (ip), vehicle: saline with Tween-80 94 % of control | dose: 200.0 mg/kg/injection, schedule: Q01DX009 (ip), vehicle: saline with Tween-80 97 % of control

C1[CH2][Hg][CH2]CO1
inactive: dose: 100.0 mg/kg/injection, schedule: Q04DX002 (ip), vehicle: saline 100 % of control | dose: 200.0 mg/kg/injection, schedule: Q04DX002 (ip), vehicle: saline 100 % of control

O=C1CCC(=O)N1C1C=CC=CC=C1
inactive: [7] 98 % of control | [8] 97 % of control | [9] 96 % of control

O=C(Nc1ccc(F)cc1)C(c1ccccc1)c1ccccc1
inactive: [10] 108 % of control | dose: 100.0 mg/kg/injection, schedule: Q04DX003 (ip), vehicle: Klucel (hydroxypropylcellulose) (HPC) 90 % of control | dose: 200.0 mg/kg/injection, schedule: Q01DX009 (ip), vehicle: Klucel (hydroxypropylcellulose) (HPC) 101 % of control | dose: 200.0 mg/kg/injection, schedule: Q04DX003 (ip), vehicle: Klucel (hydroxypropylcellulose) (HPC) 93 % of control | dose: 400.0 mg/kg/injection, schedule: Q01DX009 (ip), vehicle: Klucel (hydroxypropylcellulose) (HPC) 95 % of control | dose: 400.0 mg/kg/injection, schedule: Q04DX003 (ip), vehicle: Klucel (hydroxypropylcellulose) (HPC) 88 % of control

CC(=O)[C@@]1(O)CC[C@H]2[C@@H]3C[C@H](C)C4=CC(=O)C=C[C@]4(C)[C@@]3(F)[C@@H](O)C[C@@]21C
inactive: [1] 103 % of control | dose: 100.0 mg/kg/injection, schedule: Q01DX009 (sc), vehicle: steriod suspending solution 115 % of control | [2] 100 % of control | dose: 200.0 mg/kg/injection, schedule: Q01DX009 (sc), vehicle: steriod suspending solution 108 % of control | [3] 103 % of control | dose: 400.0 mg/kg/injection, schedule: Q01DX009 (sc), vehicle: steriod suspending solution 111 % of control | dose: 800.0 mg/kg/injection, schedule: Q01DX001 (sc), vehicle: steriod suspending solution 103 % of control | dose: 800.0 mg/kg/injection, schedule: Q01DX009 (sc), vehicle: steriod suspending solution 101 % of control

CCOC(=O)Nc1cc(NC(C)CCCN(CC)CC)nc2nc(-c3ccc(Cl)cc3)cnc12 (stereo not given)
inactive: dose: 9.5 mg/kg/injection, schedule: Q01DX001 (ip), vehicle: saline 100 % of control | dose: 19.0 mg/kg/injection, schedule: Q01DX001 (ip), vehicle: saline 102 % of control | dose: 38.0 mg/kg/injection, schedule: Q01DX001 (ip), vehicle: saline 89 % of control | dose: 75.0 mg/kg/injection, schedule: Q01DX001 (ip), vehicle: saline 100 % of control

C=C1C=C(C)N(C(=O)c2ccccc2)CCN1C(=O)c1ccccc1
inactive: dose: 100.0 mg/kg/injection, schedule: Q04DX003 (ip), vehicle: saline 96 % of control | dose: 200.0 mg/kg/injection, schedule: Q04DX003 (ip), vehicle: saline 95 % of control | dose: 400.0 mg/kg/injection, schedule: Q04DX003 (ip), vehicle: saline 106 % of control

O=C(O)C/C(=C/c1ccc2c(c1)OCO2)C(=O)O
inactive: dose: 100.0 mg/kg/injection, schedule: Q01DX009 (sc), vehicle: olive oil, sesame oil, peanut oil 102 % of control | dose: 100.0 mg/kg/injection, schedule: Q04DX003 (sc), vehicle: olive oil, sesame oil, peanut oil 106 % of control | dose: 200.0 mg/kg/injection, schedule: Q01DX009 (sc), vehicle: olive oil, sesame oil, peanut oil 100 % of control | dose: 200.0 mg/kg/injection, schedule: Q04DX003 (sc), vehicle: olive oil, sesame oil, peanut oil 106 % of control | dose: 400.0 mg/kg/injection, schedule: Q01DX009 (sc), vehicle: olive oil, sesame oil, peanut oil 98 % of control | dose: 400.0 mg/kg/injection, schedule: Q04DX003 (sc), vehicle: olive oil, sesame oil, peanut oil 101 % of control

CCNC(=O)CC#N
inactive: [11] 102 % of control | [12] 91 % of control | [13] 108 % of control

CCCOc1ccc(-c2nc(-c3ccc(N=Cc4ccc(N(CCOS(C)(=O)=O)CCOS(C)(=O)=O)cc4C)cc3)cs2)cc1
inactive: dose: 25.0 mg/kg/injection, schedule: Q01DX009 (ip), vehicle: Klucel (hydroxypropylcellulose) (HPC) 114 % of control | dose: 50.0 mg/kg/injection, schedule: Q01DX009 (ip), vehicle: Klucel (hydroxypropylcellulose) (HPC) 109 % of control | dose: 75.0 mg/kg/injection, schedule: Q01DX009 (ip), vehicle: Klucel (hydroxypropylcellulose) (HPC) 106 % of control | [10] 94 % of control

CCOC(=O)N/N=C/c1ccc(N(C)CCC#N)cc1
inactive: dose: 100.0 mg/kg/injection, schedule: Q01DX001 (ip), vehicle: saline with Tween-80 100 % of control | dose: 100.0 mg/kg/injection, schedule: Q04DX002 (ip), vehicle: saline with Tween-80 95 % of control and 107 % of control | [7] 102 % of control | dose: 200.0 mg/kg/injection, schedule: Q01DX001 (ip), vehicle: saline with Tween-80 103 % of control | dose: 200.0 mg/kg/injection, schedule: Q04DX002 (ip), vehicle: saline with Tween-80 96 % of control and 104 % of control | [8] 93 % of control and 98 % of control | dose: 400.0 mg/kg/injection, schedule: Q04DX002 (ip), vehicle: saline with Tween-80 98 % of control and 107 % of control | [9] 94 % of control and 96 % of control

COc1ccc2c(c1C)CCC1(COC(C)=O)CC(C)(O)C(O)CC21 (stereo not given)
inactive: dose: 100.0 mg/kg/injection, schedule: Q01DX009 (ip), vehicle: saline sonified 96 % of control | dose: 200.0 mg/kg/injection, schedule: Q01DX009 (ip), vehicle: saline sonified 94 % of control | dose: 400.0 mg/kg/injection, schedule: Q01DX009 (ip), vehicle: saline sonified 93 % of control

COP(=O)(OC)C(OC(=O)C(C)(C)SC(C)=S)=C(C)C
inactive: [7] 103 % of control | [8] 96 % of control | [9] 94 % of control

Cc1c2c(n(C)c1C(=O)N1CCCCC1)CCCC2=O
inactive: [4] 103 % of control | [5] 101 % of control | [6] 98 % of control

O=C(Nc1cc(C(F)(F)F)cc(C(F)(F)F)c1)Nc1ccc(Oc2ccccc2Cl)c(S(=O)(=O)O)c1
inactive: dose: 100.0 mg/kg/injection, schedule: Q04DX003 (ip), vehicle: saline sonified 117 % of control | dose: 200.0 mg/kg/injection, schedule: Q04DX003 (ip), vehicle: saline sonified 115 % of control | dose: 400.0 mg/kg/injection, schedule: Q04DX003 (ip), vehicle: saline sonified 121 % of control

Clc1cc2nc3[nH]c4ccccc4c3nc2cc1Cl
inactive: dose: 100.0 mg/kg/injection, schedule: Q01DX001 (ip), vehicle: saline 97 % of control

N#Cc1ccccc1CCl
inactive: dose: 50.0 mg/kg/injection, schedule: Q01DX001 (ip), vehicle: carboxymethylcellulose (CMC) 103 % of control | [11] 97 % of control | [12] 103 % of control | [13] 107 % of control
